Measurements reported in patent US20220323425A1, “CO-POTENTIATORS FOR THERAPY OF CYSTIC FIBROSIS CAUSED BY MINIMAL FUNCTION CFTR MUTANTS” (THE REGENTS OF THE UNIVERSITY OF CALIFORNIA, priority 2019, published 2022).
Like-named read-outs stand apart in the source and are kept apart here.

Tests used:
Format in all cases: cell-based
N1303K-CFTR = N1303K-CFTR (Homo sapiens, UniProt P13569, N1303K); assay: Short-circuit current in FRT cells expressing N1303K-CFTR; design: expressed in transfected cells; host or cells: Fischer rat thyroid (FRT) cells; settings: for EC50 / Relative Vmax (%)*: Table 1B; for EC50: cell line not given; for Relative Vmax (%)*: footnote to * not given; for short-circuit current response when added after VX-770: 20 μM forskolin, 5 μM VX-770, 20 μM test potentiator
Description: (§1) Short-circuit current was measured on cells cultured on permeable supports (Corning) as described (Haggie, 2017; Phuan, 2018). For FRT cells, the basolateral membrane was permeabilized with 250 μg/mL amphotericin B, and experiments were done using a HCO3^−-buffered system (in mM: 120 NaCl, 5 KCl, 1 MgCl2, 1 CaCl2), 5 Hepes, 25 NaHCO3, 10 glucose, pH 7.4) with a basolateral to apical chloride gradient (60 mM NaCl replaced by sodium gluconate in the apical solution). For human airway epithelial cells, symmetrical HCO3^−-buffered solutions (containing 120 mM NaCl) were used. Cells were equilibrated with 95% O2, 5% CO2 and maintained at 37° C. Hemichambers were connected to a DVC-1000 voltage clamp (World Precision Instruments Inc., Sarasota, Fla.) via Ag/AgCl electrodes and 3 M KCl agar bridges for recording of the short-circuit current.
(§2) GraphPad Prism software (GraphPad Inc., San Diego, Calif., USA) was used for statistical analysis. EC50 values were determined by non-linear regression to a single-site inhibition model. Statistical significance was determined using unpaired Student's t test, with P<0.05 considered significant.
Co-potentiator efficacy was initially determined by short-circuit current measurements in FRT cells expressing N1303K-CFTR in the presence of a transepithelial chloride gradient and with permeabilization of the basolateral cell membrane such that measured current directly reports CFTR channel activity. […] We previously defined potentiators as either class I compounds, including VX-770 and GLPG1837, or class II compounds such as the arylsulphonamide-pyrrolopyridine and spiro[piperidine-4,1-pyrido[3,4-b]indole] copotentiators that probably bind at distinct sites on CFTR. N1303K-CFTR expressing FRT cells treated with forskolin and GLPG1837 had similar 2i co-potentiator EC50 of 0.8±0.2 μM (FIG. 7B).

W1282X-CFTR = biological target: T1, W1282X-CFTR (Homo sapiens, UniProt P13569); assay: Structure-activity testing of co-potentiator analogs in FRT cells expressing W1282X-CFTR; settings: for Relative Vmax (%)*: 100% Vmax corresponds to 20 μM ASP-11; for EC50: FRT cells expressing W1282X-CFTR
T1 construct: CFTR1281 (the truncation product generated by W1282X-CFTR); expressed in transfected cells
Description: To establish structure-activity relationships, 240 commercially available spiro[piperidine-4,1pyrido[3,4-b]indoles]analogs and 160 pyrazoloquinoline analogs were tested in FRT cells expressing W 1282X-CFTR. FIG. 5A summarizes the structural determinants for activity for the spiro[piperidine-4,1pyrido[3,4-b]indoles] reported in Table 1A (CP-Axxx designations).
High-throughput screening used a semi-automated screening platform (Beckman, Fullerton, Calif.) as described (Haggie, 2017). FRT cells expressing W1282X and YFP were plated in 96-well black-walled, clear-bottom tissue culture plates (Corning) at a density of 20,000 cells/well and grown for 24 h at 37° C. to ˜90% confluency. Cells were treated with 3 μM VX-809 for 24 hours. Cells were then washed twice with PBS, and incubated in 100 μl of PBS containing forskolin (10 μM), VX-770 (15 nM) and test compounds (25 μM) for 10 min prior to assay of CFTR activity. All plates contained wells with positive (5 μM VX-770+20 μM ASP-11) and negative (5 μM VX-770) controls. Assays were done using a BMG Labtech FLUOstar OMEGA plate reader (Cary, N.C.) over 12 s with initial fluorescence intensity recorded for 2 s prior to addition of 100 μl of NaI-substituted PBS (137 mM NaCl replaced with NaI). Initial iodide influx was computed from fluorescence intensity by single exponential regression. […]
as §2

Q1313X-CFTR = biological target: T2, Q1313X-CFTR (Homo sapiens, UniProt P13569); assay: Short-circuit current in FRT cells expressing Q1313X-CFTR; settings: 20 μM forskolin; for short-circuit current response when added after VX-770: 5 μM VX-770, 25 μM apigenin, others 20 μM
T2 construct: several truncated forms of CFTR resulting from premature termination codons (PTCs) located in NBD2; expressed in transfected cells; host or cells: FRT cells, pIRESpuro3 vector, puromycin-selected clonal lines
Description: as §1, §2

Sequence of N1303K-CFTR (P13569 whole entry N1303K): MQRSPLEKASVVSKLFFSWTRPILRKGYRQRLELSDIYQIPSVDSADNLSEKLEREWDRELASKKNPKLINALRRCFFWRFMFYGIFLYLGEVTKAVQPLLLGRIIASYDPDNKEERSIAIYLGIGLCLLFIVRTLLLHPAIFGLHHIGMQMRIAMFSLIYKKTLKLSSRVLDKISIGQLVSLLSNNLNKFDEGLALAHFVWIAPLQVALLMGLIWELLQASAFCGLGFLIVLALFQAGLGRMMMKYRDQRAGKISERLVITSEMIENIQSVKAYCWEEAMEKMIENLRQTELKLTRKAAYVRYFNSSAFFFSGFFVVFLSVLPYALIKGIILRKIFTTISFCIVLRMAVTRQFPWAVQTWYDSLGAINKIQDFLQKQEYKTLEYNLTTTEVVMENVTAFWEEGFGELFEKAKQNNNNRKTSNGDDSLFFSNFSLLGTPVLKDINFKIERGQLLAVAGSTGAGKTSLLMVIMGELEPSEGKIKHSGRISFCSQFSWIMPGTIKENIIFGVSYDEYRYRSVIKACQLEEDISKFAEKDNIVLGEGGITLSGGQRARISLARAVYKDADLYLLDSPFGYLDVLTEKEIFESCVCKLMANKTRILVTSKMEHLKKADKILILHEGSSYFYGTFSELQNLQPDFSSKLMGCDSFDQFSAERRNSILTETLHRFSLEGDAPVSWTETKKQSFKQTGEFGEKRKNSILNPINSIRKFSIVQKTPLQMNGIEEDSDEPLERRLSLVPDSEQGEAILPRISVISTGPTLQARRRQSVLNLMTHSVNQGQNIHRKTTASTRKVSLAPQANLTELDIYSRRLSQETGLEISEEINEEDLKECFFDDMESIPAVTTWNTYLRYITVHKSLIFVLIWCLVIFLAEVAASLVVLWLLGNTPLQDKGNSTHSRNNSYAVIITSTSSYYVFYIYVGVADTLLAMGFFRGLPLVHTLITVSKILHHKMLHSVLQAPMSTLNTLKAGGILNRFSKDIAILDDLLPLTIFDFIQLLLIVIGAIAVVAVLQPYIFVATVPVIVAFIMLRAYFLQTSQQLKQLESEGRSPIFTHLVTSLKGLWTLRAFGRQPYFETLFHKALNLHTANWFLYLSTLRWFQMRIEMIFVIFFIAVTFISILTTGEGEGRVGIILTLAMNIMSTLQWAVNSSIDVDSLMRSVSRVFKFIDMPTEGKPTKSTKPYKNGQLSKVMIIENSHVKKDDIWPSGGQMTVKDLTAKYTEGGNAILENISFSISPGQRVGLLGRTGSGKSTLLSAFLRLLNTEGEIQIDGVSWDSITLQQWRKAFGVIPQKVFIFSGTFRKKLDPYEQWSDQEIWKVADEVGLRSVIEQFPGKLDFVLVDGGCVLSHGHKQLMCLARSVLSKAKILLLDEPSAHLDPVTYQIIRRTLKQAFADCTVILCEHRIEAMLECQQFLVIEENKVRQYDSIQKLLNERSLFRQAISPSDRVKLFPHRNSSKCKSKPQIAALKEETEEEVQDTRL
T2 sequence (P13569 1-1312 limits assumed): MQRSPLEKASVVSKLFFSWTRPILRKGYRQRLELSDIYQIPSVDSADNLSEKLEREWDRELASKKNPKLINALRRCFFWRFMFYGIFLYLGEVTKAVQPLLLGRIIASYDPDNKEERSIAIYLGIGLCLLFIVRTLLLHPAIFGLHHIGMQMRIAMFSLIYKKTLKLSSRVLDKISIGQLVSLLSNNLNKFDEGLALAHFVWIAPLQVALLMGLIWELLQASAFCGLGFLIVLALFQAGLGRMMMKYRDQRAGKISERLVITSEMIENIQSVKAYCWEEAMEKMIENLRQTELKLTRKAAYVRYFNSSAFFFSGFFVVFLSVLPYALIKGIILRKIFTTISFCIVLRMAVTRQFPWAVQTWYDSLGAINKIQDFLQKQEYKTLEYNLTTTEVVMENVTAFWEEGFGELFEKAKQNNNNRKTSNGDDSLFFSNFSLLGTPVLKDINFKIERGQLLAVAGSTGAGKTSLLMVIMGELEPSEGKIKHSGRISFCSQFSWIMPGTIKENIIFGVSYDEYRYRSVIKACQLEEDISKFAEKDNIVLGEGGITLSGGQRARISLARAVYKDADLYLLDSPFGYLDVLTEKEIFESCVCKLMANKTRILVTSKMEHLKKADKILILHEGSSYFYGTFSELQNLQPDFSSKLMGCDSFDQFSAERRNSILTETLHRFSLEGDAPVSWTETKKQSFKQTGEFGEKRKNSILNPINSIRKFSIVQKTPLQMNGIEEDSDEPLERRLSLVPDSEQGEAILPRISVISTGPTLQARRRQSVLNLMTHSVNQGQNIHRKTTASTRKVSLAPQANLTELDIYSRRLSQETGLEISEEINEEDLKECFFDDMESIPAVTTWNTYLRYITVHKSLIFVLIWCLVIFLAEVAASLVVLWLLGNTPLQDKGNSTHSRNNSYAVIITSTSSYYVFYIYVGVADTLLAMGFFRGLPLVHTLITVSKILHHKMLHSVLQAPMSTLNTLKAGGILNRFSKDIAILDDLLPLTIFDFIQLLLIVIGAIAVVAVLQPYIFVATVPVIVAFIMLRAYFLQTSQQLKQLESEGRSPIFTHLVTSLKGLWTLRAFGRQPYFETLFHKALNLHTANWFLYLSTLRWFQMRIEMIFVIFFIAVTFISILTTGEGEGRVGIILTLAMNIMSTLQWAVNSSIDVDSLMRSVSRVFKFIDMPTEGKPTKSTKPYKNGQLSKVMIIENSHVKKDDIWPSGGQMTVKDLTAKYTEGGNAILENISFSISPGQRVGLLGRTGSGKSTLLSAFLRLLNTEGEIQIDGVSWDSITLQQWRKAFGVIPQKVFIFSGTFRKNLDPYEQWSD
T1 sequence (P13569 1-1281 limits assumed): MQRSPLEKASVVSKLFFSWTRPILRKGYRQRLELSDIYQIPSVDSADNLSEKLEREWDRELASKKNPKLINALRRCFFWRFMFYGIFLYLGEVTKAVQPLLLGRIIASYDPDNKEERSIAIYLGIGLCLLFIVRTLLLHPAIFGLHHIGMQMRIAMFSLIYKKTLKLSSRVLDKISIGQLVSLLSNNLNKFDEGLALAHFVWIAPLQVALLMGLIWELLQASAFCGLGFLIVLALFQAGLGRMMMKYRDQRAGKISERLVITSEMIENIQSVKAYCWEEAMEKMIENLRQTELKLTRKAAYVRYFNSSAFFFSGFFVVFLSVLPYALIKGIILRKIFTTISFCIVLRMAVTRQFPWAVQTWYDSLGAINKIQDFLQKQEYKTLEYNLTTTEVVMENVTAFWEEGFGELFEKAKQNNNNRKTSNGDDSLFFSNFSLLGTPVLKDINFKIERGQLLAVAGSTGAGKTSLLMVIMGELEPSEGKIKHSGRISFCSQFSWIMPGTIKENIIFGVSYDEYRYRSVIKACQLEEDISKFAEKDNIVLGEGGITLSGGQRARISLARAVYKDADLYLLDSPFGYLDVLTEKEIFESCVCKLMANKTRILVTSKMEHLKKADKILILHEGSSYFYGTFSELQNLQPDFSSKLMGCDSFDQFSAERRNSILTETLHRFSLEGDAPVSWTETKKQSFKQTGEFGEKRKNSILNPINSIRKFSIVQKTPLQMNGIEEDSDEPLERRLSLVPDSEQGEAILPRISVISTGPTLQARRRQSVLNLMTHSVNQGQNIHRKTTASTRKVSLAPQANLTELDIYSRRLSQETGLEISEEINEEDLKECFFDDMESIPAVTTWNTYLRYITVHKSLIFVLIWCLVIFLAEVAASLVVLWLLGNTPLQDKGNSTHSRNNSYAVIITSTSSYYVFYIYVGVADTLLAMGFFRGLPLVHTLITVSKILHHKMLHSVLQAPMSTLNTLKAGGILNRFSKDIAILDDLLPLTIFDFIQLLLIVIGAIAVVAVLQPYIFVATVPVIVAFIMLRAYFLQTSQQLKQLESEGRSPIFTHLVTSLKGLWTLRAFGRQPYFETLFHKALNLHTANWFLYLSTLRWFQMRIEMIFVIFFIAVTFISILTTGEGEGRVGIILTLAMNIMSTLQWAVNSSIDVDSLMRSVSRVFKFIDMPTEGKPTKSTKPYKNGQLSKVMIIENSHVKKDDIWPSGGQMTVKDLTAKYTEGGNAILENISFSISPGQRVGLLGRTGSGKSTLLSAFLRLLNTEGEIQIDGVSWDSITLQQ

SMILES | Relative Vmax (%)* (W1282X-CFTR; Table 1A) [%] | EC50 (W1282X-CFTR; Table 1A, read-out: EC50 (μM))) [µM] | Relative Vmax (%)* (W1282X-CFTR; Table 2) [%] | EC50 (W1282X-CFTR; Table 2, read-out: EC50) [µM] | other results
COc1ccc2[nH]c3c(c2c1)CCNC31CCN(Cc2ccc(F)c(Cl)c2F)CC1 [Compound 1j, 1-(3-Chloro-2,4-difluorobenzyl)-6′-methoxy-2′,3′,4′,9′-tetrahydrospiro[piperidine-4,1′-pyrido[3,4-b]indole]] |  |  |  |  | EC50 (N1303K-CFTR): 4500 nM; Relative Vmax (%)* (N1303K-CFTR): 120%
COc1ccc2[nH]c3c(c2c1)CCNC31CCN(Cc2cc(F)c(F)c(F)c2)CC1 [Compound 2d, 6′-Methoxy-1-(3,4,5-trifluorobenzyl)-2′,3′,4′,9′-tetrahydrospiro[piperidine-4,1′-pyrido[3,4-b]indole]] |  |  |  |  | EC50 (N1303K-CFTR): 2600 nM; Relative Vmax (%)* (N1303K-CFTR): 121%
COc1ccc2[nH]c3c(c2c1)CCNC31CCN(Cc2c(F)c(F)c(F)c(F)c2F)CC1 [Compound 2e, 6′-Methoxy-1-((perfluorophenyl)methyl)-2′,3′,4′,9′-tetrahydrospiro[piperidine-4,1′-pyrido[3,4-b]indole]] |  |  |  |  | EC50 (N1303K-CFTR): 2100 nM; Relative Vmax (%)* (N1303K-CFTR): 134%
COc1ccc2[nH]c3c(c2c1)CCNC31CCN(Cc2ccc(F)c(F)c2F)CC1 [Compound 2g, 6′-Methoxy-1-(2,3,4-trifluorobenzyl)-2′,3′,4′,9′-tetrahydrospiro[piperidine-4,1′-pyrido[3,4-b]indole]] |  |  |  |  | EC50 (N1303K-CFTR): 4100 nM; Relative Vmax (%)* (N1303K-CFTR): 100%
Fc1ccc(CN2CCC3(CC2)NCCc2c3[nH]c3ccc(Cl)cc23)c(F)c1 [Compound 5c, 6′-Chloro-1-(2,4-difluorobenzyl)-2′,3′,4′,9′-tetrahydrospiro[piperidine-4,1′-pyrido[3,4-b]indole]] |  |  |  |  | EC50 (N1303K-CFTR): 2500 nM; Relative Vmax (%)* (N1303K-CFTR): 89%
COc1ccc2c3c([nH]c2c1)C1(CCN(Cc2ccc(F)cc2F)CC1)NCC3 [Compound 5d, 1-(2,4-Difluorobenzyl)-7′-methoxy-2′,3′,4′,9′-tetrahydrospiro[piperidine-4,1′-pyrido[3,4-b]indole]] |  |  |  |  | EC50 (N1303K-CFTR): 2400 nM; Relative Vmax (%)* (N1303K-CFTR): 100%
COc1ccc2[nH]c3c(c2c1)CCNC31CCN(S(C)(=O)=O)CC1 [Compound A145] | 7 | > 30 |  |  | 
CCC(=O)N1CCC2(CC1)NCCc1c2[nH]c2ccc(OC)cc12 [Compound A350] | 7 | > 30 |  |  | 
c1ccc(CN2CCC3(CC2)NCCc2c3[nH]c3ccccc23)cc1 [Compound A357] | 31 | 16 |  |  | 
COc1cccc(CN2CCC3(CC2)NCCc2c3[nH]c3ccccc23)c1 [Compound A534] | 24 | 13 |  |  | 
COc1cccc(CN2CCC3(CC2)c2[nH]c4ccccc4c2CCN3C)c1 [Compound A600] | 4 | > 30 |  |  | 
COc1ccc2[nH]c3c(c2c1)CCNC31CCN(Cc2ccc(F)c(F)c2)CC1 [Compound A662] | 100 | 2.6 |  |  | 
COc1ccc2[nH]c3c(c2c1)CCNC31CCN(Cc2scnc2C)CC1 [Compound A666] | 91 | 5.1 |  |  | 
COc1ccc2[nH]c3c(c2c1)CCNC31CCN(C2CCCCC2)CC1 [Compound A714] | 18 | > 30 |  |  | 
COc1ccc2[nH]c3c(c2c1)CCNC31CCN(C)CC1 [Compound A764] | 6 | > 30 |  |  | 
O=C(c1ccccc1)N1CCC2(CC1)NCCc1c2[nH]c2ccccc12 [Compound A815] | −4 | > 30 |  |  | 
COc1ccc2[nH]c3c(c2c1)CCNC31CCN(C(=O)Cc2ccccc2)CC1 [Compound A956] | 6 | > 30 |  |  | 
CC(C)c1ccc(NC(=O)C(c2ccccc2)N(C)C(=O)Cc2c[nH]c3ccccc23)cc1 (centres unmarked) [Compound P2, N-methyl-N-[2-[[4-(1-methylethyl)phenyl]amino]-2-oxo-1-phenylethyl]-1H-indole-3-acetamide, reference compound] |  |  |  |  | short-circuit current response when added after VX-770 (Q1313X-CFTR): did not elevate current; short-circuit current response when added after VX-770 (N1303K-CFTR): did not further increase current
Cc1cc(C)cc(N(Cc2ccc(Cl)cc2)S(=O)(=O)c2cccn3c(C)nnc23)c1 [W1282Xpot-C01, reference compound] |  |  |  |  | short-circuit current response when added after VX-770 (N1303K-CFTR): activated N1303K-CFTR; activation by two Class II potentiators added together (N1303K-CFTR; W1282Xpot-C01 and ASP-11, 20 μM each, no Class I potentiator): little activation
O=c1cc(-c2ccc(O)cc2)oc2cc(O)cc(O)c12 [apigenin] |  |  |  |  | short-circuit current response when added after VX-770 (Q1313X-CFTR): showed synergy; short-circuit current response when added after GLPG1837 (Q1313X-CFTR; 20 μM GLPG1837): showed synergy

Second part, led by results:

Relative Vmax (%)* (W1282X-CFTR; Table 1A) [%] | EC50 (W1282X-CFTR; Table 1A, read-out: EC50 (μM))) [µM] | Relative Vmax (%)* (W1282X-CFTR; Table 2) [%] | EC50 (W1282X-CFTR; Table 2, read-out: EC50) [µM] | SMILES | other results
 |  | 1 | > 30 | COc1ccc2cc3c(N)nn(C(=O)c4ccncc4)c3nc2c1 [Compound D003] | 
 |  | 24 | 3.6 | COc1ccc2cc3c(N)nn(C(=O)c4ccc(F)cc4)c3nc2c1 [Compound D010] | 
 |  | 3 | > 30 | COc1ccc2cc3c(N)nn(C(=O)c4cc(OC)c(OC)c(OC)c4)c3nc2c1 [Compound D012] | 
 |  | 92 | 2.4 | COc1ccc2cc3c(N)nn(C(=O)c4ccc(F)cc4Cl)c3nc2c1 [Compound D018] | 
 |  | 3 | > 30 | COc1ccc2cc3c(N)nn(C(=O)c4ccc([N+](=O)[O-])c(C)c4)c3nc2c1 [Compound D025] | 
 |  | 1 | > 30 | COc1ccc2cc3c(N)nn(C(=O)Cc4ccc([N+](=O)[O-])cc4)c3nc2c1 [Compound D035] | 
 |  | 11 | > 30 | COc1ccc2cc3c(N)nn(C(=O)c4ccc(Cl)c([N+](=O)[O-])c4)c3nc2c1 [Compound D036] | 
 |  | 100 | 1.7 | COc1ccc2cc3c(N)nn(C(=O)c4ccc([N+](=O)[O-])cc4Cl)c3nc2c1 [Compound D038] | 
 |  | 3 | > 30 | COc1ccc2cc3c(N)nn(C(=O)Cc4ccc([N+](=O)[O-])cc4)c3nc2c1 [Compound D086] | 
 |  | 11 | 18 | Cc1ccc2cc3c(N)nn(C(=O)c4ccc(F)cc4)c3nc2c1 [Compound D136] | 
 |  | 21 | 3.4 | COc1ccc2nc3c(cc2c1)c(N)nn3C(=O)c1ccc([N+](=O)[O-])cc1Cl [Compound D138] | 
